Laboratory results: US10328075B2, “Method of treatment and compounds for use therein” (Baker Heart and Diabetes Institute, priority 2015, dated 2019)

Key:
hFPR2 [1] = molecular target: T1, hFPR2 (Homo sapiens, UniProt P25090); assay: [Ca2+]i mobilization in FlpIn-CHO cells stably expressing hFPR2; type: cell-based; conditions: for Emax: Flp-In-CHO; for EC50: read-out: pEC50, [Ca^2+]i mobilization, hFPR2-Flpln-CHO (converted); for ΔLog(τ/KA), [Ca^2+]i mobilization, hFPR2-Flpln-CHO: normalized transduction coefficient, reference agonist Cmpd43; for Log(τ/KA), [Ca^2+]i mobilization, hFPR2-Flpln-CHO: transduction coefficient
T1 construct: expressed in transfected cells
T1 sequence (P25090 1-351): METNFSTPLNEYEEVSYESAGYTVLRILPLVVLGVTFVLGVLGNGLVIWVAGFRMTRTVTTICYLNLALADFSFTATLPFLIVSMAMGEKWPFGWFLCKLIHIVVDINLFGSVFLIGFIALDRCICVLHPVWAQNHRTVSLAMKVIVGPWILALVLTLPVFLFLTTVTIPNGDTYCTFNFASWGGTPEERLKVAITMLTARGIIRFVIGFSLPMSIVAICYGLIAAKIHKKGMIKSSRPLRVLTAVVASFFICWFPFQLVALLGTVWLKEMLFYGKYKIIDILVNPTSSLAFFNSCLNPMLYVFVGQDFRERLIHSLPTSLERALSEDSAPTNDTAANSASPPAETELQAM
From the text: (§1) cDNDA construct and generation of stable cell lines: cDNA in pcDNA3.1^+ encoding the human formyl peptide receptors (FPR) subtypes, hFPR1, hFPR2 and hFPR3 was obtained from Invitrogen. The sequences for 3 hFPR receptors were amplified by PCR and cloned into the Gateway entry vector, pDONR202™, using the BP clonase enzyme mix, according to the manufactures' instructions (Invitrogen Inc, Carlsbad, Calif., USA). All hFPR receptors constructs in pDONR201™ were subsequently transfected into the pEF5/FRT/V5/dest vector using the LR clonase enzyme mix (Invitrogen). Receptor constructs (pEF5/FRT/V5/dest) were used to transfect FIp-In CHO cells as described previously (Valant C et al., PNAS, 2014). Cells were selected using 500 μg/mL hydromycin to generate cell lines stably expressing each receptor construct. Cells were maintained and cultured in high glucose DMEM supplemented with 10% FBS, 16 mM HEPES and 500 μg/mL hydromycin at 37° C. under a humidified atmosphere containing 5% CO2.
(§2) In the various assays described below, cells were plated into 96-well transparent cell culture plates at 4×10^4 cells per well, cultured overnight in serum-free media at 37° C. in 5% CO2.
Intracellular calcium mobilization: Intracellular calcium mobilization was assayed as described previously (Keov, P et al., 2014). Briefly, cells were washed once using HEPES buffered saline (HBS) solution [150 mM NaCl, 2.2 mM CaCl2, 2.6 mM KCl, 1.2 mM MgCl2, 10 mM HEPEs, 10 mM D-Glucose, 0.5% (w/v) bovine serum albumin (BSA) and 4 mM probenecid] at pH 7.4, then treated with Fluo-4-AM (1 μM, in HBS/BSA/probenecid) for 60 min at 37° C. in 5% CO2 in the dark. Cells were then further washed and placed in HBS/BSA/probenecid solution for ligation addition and assay using the FLEXstation 3 plate reader (Molecular Devices, Sunnyvale, Calif.). For all experiments, peak change in fluorescence signal was normalized to the cellular response to 100 μM ATP, which was used as an internal positive control.
(§3) Data analysis: All data were analysed using GraphPad Prism 6.0 (GraphPad Software, San Deigo, Calif., USA). Where appropriate, concentration-response curves were fitted to derive the maximal agonist effect (Emax), and the ligand potency estimate (pEC50), where Emax is the maximal possible response of the system (not the agonist), basal is the basal level of response in the absence of agonist, and pEC50 is the negative logarithm of the agonist concentration that gives a response halfway between Emax and basal.
(§4) In the present study, FIp-IN CHO cells and Gateway plasmid were obtained from Invitrogen Inc (Carlsbad, Calif., USA). The sequences for all 3 known human FPRs (hFPR1, hFPR2 and hFPR3) were amplified by PCR and cloned into the Gateway entry vector, pDONR202TM, using the BP clonase enzyme mix, according to the manufacturers' instructions. The hFPR pDONR201TM constructs were subsequently transfected into the pEF5/FRT/V5/dest vector using the LR clonase enzyme mix (Invitrogen). Receptor constructs (pEF5/FRT/V5/dest) were used to transfect FIp-IN CHO cells, as described previously (Valant et al. 2014). Cells were selected using 500 μg/mL hydromycin to generate cell lines stably expressing each human receptor construct. Cells were maintained and cultured in high glucose Dulbecco's modified eagle medium (DMEM) supplemented with 10% fetal bovine serum (FBS, from JRH Biosciences, Lenexa, Kans., USA) and 500 μg/mL hydromycin B (Invitrogen Inc) at 37° C. under a humidified atmosphere containing 5% CO2. Cell were plated into 96-well transparent cell culture plates at 4×10^4 cells per well, cultured overnight in serum-free media at 37° C. in 5% CO2.
(ii) Intracellular Ca2+ mobilization: Intracellular Ca2+ mobilization was determined in stably-transfected recombinant hFPR CHO cells, as described previously (Valant et al. 2014).

hFPR2 [2] = molecular target: T1, hFPR2; assay: Akt (Thr308) phosphorylation in hFPR2-FlpIn-CHO cells; type: cell-based; conditions: for ΔLog(τ/KA), Akt 1/2/3 (Thr308) phosphorylation, hFPR2-Flpln-CHO: normalized transduction coefficient, reference agonist Cmpd43; for Log(τ/KA), Akt 1/2/3 (Thr308) phosphorylation, hFPR2-Flpln-CHO: transduction coefficient
From the text: as §1, §2
Measurement of Akt1/2/3 phosphorylation and Akt 1: The same lysate was used for measurement of Akt1/2/3 phosphorylation (Ser473) and Akt1 (Thr308). Cells were lysed in SureFire lysis buffer and transferred to 384-well opaque proxiplates. Under low-light conditions, a 1:10:40 (v:v:v) dilution of AlphaScreen acceptor beads:Surefire activation buffer:Surefire reaction buffer was prepared and the plate was incubated in the dark at RT for 2 h. Then, a 1:20 (v:v) dilution of AlphaScreen donor beads/dilution was prepared and incubated in the dark at RT for another 2 h, before the fluorescence signal was measured by used of a Fusion-α plate reader (PerkinElmer Life and Analytical Sciences) with standard AlphaScreen settings. Receptor mediated phosphorylation of Akt1/2/3 (Ser473) and Akt1 (Thr308) were determined using the AlphaScreen™ […] SureFire™ kit, as per as per manufacturer's instructions. Data were normalized to the maximal response elicited by 10% (v:v) FBS at the same time point.
as §3, §4

[3] = Table 1, percentage of [Ca^2+]i mobilization elicited by ATP, read-out: Emax (%), [Ca^2+]i mobilization, hFPR2-Flpln-CHO
[4] = Table 8, percent of response elicited by ATP, read-out: Emax, [Ca^2+]i mobilization, hFPR2-Flpln-CHO
[5] = Table 3, percentage of Akt1/2/3 phosphorylation elicited by 10% FBS, read-out: Emax (%), Akt 1 (Thr308) phosphorylation, hFPR2-Flpln-CHO
[6] = Table 8, percent of response elicited by 10% FBS, read-out: Emax, Akt 1/2/3 (Thr308) phosphorylation, hFPR2-Flpln-CHO

Structure (SMILES) | Emax (hFPR2 [1]; [3]) [%] | Emax (hFPR2 [1]; [4]) [%] | EC50 (hFPR2 [1]; Table 1) [µM] | ΔLog(τ/KA), [Ca^2+]i mobilization, hFPR2-Flpln-CHO (hFPR2 [1]; Table 8) | EC50 (hFPR2 [1]; Table 8) [µM] | Log(τ/KA), [Ca^2+]i mobilization, hFPR2-Flpln-CHO (hFPR2 [1]; Table 8) | Emax (hFPR2 [2]; [5]) [%] | EC50 (hFPR2 [2]; Table 3, read-out: pEC50, Akt 1 (Thr308) phosphorylation, hFPR2-Flpln-CHO (converted)) [µM] | ΔLog(τ/KA), Akt 1/2/3 (Thr308) phosphorylation, hFPR2-Flpln-CHO (hFPR2 [2]; Table 8) | Emax (hFPR2 [2]; [6]) [%] | EC50 (hFPR2 [2]; Table 8, read-out: pEC50, Akt 1/2/3 (Thr308) phosphorylation, hFPR2-Flpln-CHO (converted)) [µM] | Log(τ/KA), Akt 1/2/3 (Thr308) phosphorylation, hFPR2-Flpln-CHO (hFPR2 [2]; Table 8) | Potency range of Ca^2+ mobilization in hFPR2-CHO cells (hFPR2 [1]; in words)
CC(C)C1C(NC(=O)Nc2ccc(Cl)cc2)C(=O)N(c2ccccc2)N1C (stereo not drawn) [BIDI-002] | 51 ± 3 | 51 ± 3 | 0.0209 | 0.0 | 0.02 | 7.7 ± 0.3 | 27 ± 2 | 0.138 | 0.0 | 27 ± 2 | 0.126 | 7.0 ± 0.2 | 
CSCC[C@H](NC=O)C(=O)N[C@@H](CC(C)C)C(=O)N[C@@H](Cc1ccccc1)C(=O)O [fMLP, N-formyl-Met-Leu-Phe] | 38 ± 4 | 38 ± 4 |  | −2.2 ± 0.3 |  | 5.4 ± 0.1 | 7 ± 2 |  | −2.1 ± 0.3 | 21 ± 2 |  | 4.8 ± 0.1 | micromolar range
